Experimental data: patent publication US5846976A, “Androstenone derivative” (Glaxo Wellcome Inc., priority 1996, dated 1998)

Legend:
[1] = McConnell 1990; Rasmusson et al. 1984; cited from earlier work
[2] = tested on: bovine adrenal 3β-hydroxy-Δ^5-steroid dehydrogenase/3-keto-Δ^5-steroid isomerase (3BHSD); settings: Tan et al. 1987; Brandt and Levy 1989; cited from earlier work
[3] = tested on: porcine granulosa cell 3β-hydroxy-Δ^5-steroid dehydrogenase/3-keto-Δ^5-steroid isomerase (3BHSD); settings: Tan et al. 1987; Brandt and Levy 1989; cited from earlier work
[4] = Half-life compared to finasteride and SKF105657
[5] = biological target: T1, human type 1 5α-reductase (Homo sapiens, UniProt P18405); assay: Steroid 5α-reductase type 1 inhibition (microsomes, conversion of testosterone to DHT); format: biochemical
T1 construct: made in house; host or cells: SF9 insect cells infected with recombinant baculovirus (microsomes)
T1 sequence (P18405 1-259): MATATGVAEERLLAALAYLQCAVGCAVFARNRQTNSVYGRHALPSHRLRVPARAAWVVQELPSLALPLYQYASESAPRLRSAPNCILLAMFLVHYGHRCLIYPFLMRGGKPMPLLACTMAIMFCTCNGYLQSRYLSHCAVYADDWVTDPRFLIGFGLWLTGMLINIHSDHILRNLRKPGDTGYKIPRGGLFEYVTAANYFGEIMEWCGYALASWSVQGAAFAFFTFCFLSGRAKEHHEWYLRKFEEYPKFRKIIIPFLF
Procedure: (§1) Enzyme activies may be determined using microsomes derived from: 1) prostate tissue from benign prostatic hyperplasia (BPH) patients; 2) recombinant baculovirus infected SF9 cells that express human type 1 5α-reductase; or 3) recombinant baculovirus infected SF9 cells that express human type 2 5α-reductase. Microsomes were prepared by homogenization of the tissue or cells, followed by differential centrifugation of the homogenate. Microsome extracts were incubated with varying concentrations of [1,2,6,7-3H]-testosterone, 1 mM NADPH, and varying amounts of the compounds of Formula I, i.e. a test compound, in buffer containing a NADPH regenerating system capable of maintaining NADPH concentrations for a period of time within the range 0.5-240 minutes. Corresponding incubations were carried out with no test compound as a control study. For clone 1 IC50 measurements, assay components except testosterone were preincubated for 10 minutes at pH 7.0, and following the addition of 100 nM testosterone the assays were allowed to proceed for 10-120 minutes. For clone 2 IC50 measurements, assay components except testosterone were preincubated for 20 minutes at pH 6.0, and following the addition of 8 nM testosterone the assays were allowed to proceed for 20-40 minutes. […]

[6] = tested on: 5α-reductase; assay: Potency compared to finasteride and SKF105657
[7] = biological target: T2, human type 2 5α-reductase (Homo sapiens, UniProt P31213); assay: Steroid 5α-reductase type 2 inhibition (microsomes, conversion of testosterone to DHT); format: biochemical
T2 construct: made in house; host or cells: SF9 insect cells infected with recombinant baculovirus (microsomes)
T2 sequence (P31213 1-254): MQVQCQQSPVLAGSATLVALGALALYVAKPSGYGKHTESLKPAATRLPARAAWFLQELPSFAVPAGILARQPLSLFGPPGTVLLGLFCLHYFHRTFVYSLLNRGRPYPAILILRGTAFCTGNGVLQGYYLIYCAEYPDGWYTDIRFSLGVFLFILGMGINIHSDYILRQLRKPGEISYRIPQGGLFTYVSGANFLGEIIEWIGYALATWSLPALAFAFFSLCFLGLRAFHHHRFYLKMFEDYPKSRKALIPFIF
Procedure: as §1

[8] = biological target: T3, Human Adrenal 3BHSD (Homo sapiens, UniProt P26439); assay: Human adrenal 3β-hydroxy-Δ^5-steroid dehydrogenase/3-keto-Δ^5-steroid isomerase inhibition (microsomes, conversion of DHEA to androstenedione); format: biochemical
T3 construct: microsomes derived from human adrenal tissues; from tissue; host or cells: human adrenal tissue (microsomes)
T3 sequence (P26439 1-372): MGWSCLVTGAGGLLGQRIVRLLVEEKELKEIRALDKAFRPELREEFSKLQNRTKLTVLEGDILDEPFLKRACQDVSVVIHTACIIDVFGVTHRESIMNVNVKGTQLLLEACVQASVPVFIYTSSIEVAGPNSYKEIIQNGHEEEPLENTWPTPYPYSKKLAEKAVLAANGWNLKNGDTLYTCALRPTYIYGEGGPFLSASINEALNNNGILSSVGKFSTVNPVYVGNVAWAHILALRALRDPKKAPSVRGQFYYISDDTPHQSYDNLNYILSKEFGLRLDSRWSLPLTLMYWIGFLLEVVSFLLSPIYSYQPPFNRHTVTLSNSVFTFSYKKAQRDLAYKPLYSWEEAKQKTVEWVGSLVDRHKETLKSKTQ
Procedure: Enzyme activities are measured using microsomes derived from human adrenal tissues. Microsomes were prepared by homogenization of the tissue followed by differential centrifugation of the homogenate. Microsome extracts were incubated with varying concentrations of dehydroepiandrosterone (DHEA), 1 mM NAD+, and varying amounts of the compound of Formula (I), i.e. a test compound, in pH 7.5 buffer for a period of time within the range of 1 to 60 minutes. Corresponding incubations were carried out with no test compound as a control study. The percentage of conversion of DHEA to androstenedione in the presence of test compounds compared to the corresponding conversion in the control study was estimated using HPLC with radiochemical detection.

CCN(CC)C(=O)[C@H]1CC[C@H]2[C@@H]3CC[C@H]4N(C)C(=O)CC[C@]4(C)[C@H]3CC[C@]12C [4-MA]
hepatotoxicity [1]: hepatotoxicity
inhibition of bovine adrenal 3BHSD [2]: potent inhibition
inhibition of porcine granulosa cell 3BHSD [3]: potent inhibition

C[C@]12C=CC(=O)N[C@@H]1CC[C@@H]1[C@@H]2CC[C@]2(C)[C@@H](C(=O)Nc3cc(C(F)(F)F)ccc3C(F)(F)F)CC[C@@H]12 [compound of formula (I), 17β-N-(2,5-bis(Trifluoromethyl))phenylcarbamoyl-4-aza-5α-androst-1-en-3-one]
half-life [4]: surprisingly long half-life
IC50 [5]: < 1 nM
potency [6]: surprisingly long half-life and potency compared to finasteride and SKF105657
IC50 [7]: < 1 nM
Ki [8]: > 1000 nM
